We go through 19 molecules from patent US9914732B2, “Diazabicyclo[4.3.1]decane derivatives for treatment of psychiatric disorders” (Max-Planck-Gesellschaft zur Forderung der Wissenschaften …, priority 2014, dated 2018).

Each structure is given as a SMILES string.

The target of one experiment is T1, FKBP51 (Homo sapiens, UniProt Q13451).
T1 sequence (Q13451 42-130 limits assumed): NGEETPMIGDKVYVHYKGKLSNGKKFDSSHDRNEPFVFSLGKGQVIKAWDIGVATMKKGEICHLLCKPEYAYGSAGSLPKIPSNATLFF
Briefly: Fluorescence polarization (FP) assay, binding to the FK506-binding domain of FKBP51. The note with it: FK506-binding domain of FKBP51 (FKBP51FK1), competition with fluorescent ligand 2b. As to the method:
(§1) In the present invention, in vitro fluorescence polarization assays with the compounds of the general formula (I) were performed to determine the binding affinities to FKBP51 and FKBP52 or to the isolated FK506-binding domains of FKBP51 and FKBP52 ([…]). Binding to the isolated FK506-binding domains is reliably indicative of binding to the full length proteins. The affinities for the isolated FK506-binding domains and for full-length FKBP51 or FKBP52 are the same for all compounds tested so far (Kozany et al, ChemBioChem 2009, 10, 1402-1410).
(§2) Example 11: Fluorescence Polarization (FP) Assays
(§3) In-vitro fluorescence polarization assays were performed to determine the binding affinities for FKBP51 and 52 according to a literature procedure (Kozany, C.; Marz, A.; Kress, C.; Hausch, F., Fluorescent probes to characterise FK506-binding proteins. Chembiochem 2009, 10, (8), 1402-10).
(§4) For fluorescence polarization assays the fluorescent ligand 2b was dissolved in HEPES (20 mm, pH 8), Triton-X100 (0.01%), at double the concentration required for the final sample. The target protein was also diluted in this assay buffer at double the highest concentration required for the final sample. This protein stock was used for a 1:1 serial dilution.
(§5) The fluorescent ligand 2b was diluted in assay buffer to a concentration double the final concentration (20 nM 2b). The inventive compound was dissolved in DMSO to reach a 100-times concentrated stock solution. This was used for a 1:1 serial dilution in DMSO. Every sample of this serial dilution was diluted by a factor of 50 in assay buffer supplemented with ligand 2b to achieve a 2× concentrated mixture of ligand 2b and the inventive compound. To this competitive ligand double the protein concentration for 2b assay: FKBP51FK1 560 nM (2×280 nM) or FKBP52FK1 800 nM (2×400 nM) diluted in assay buffer was added.
(§6) The samples were transferred to black 384-well assay plates (No.: 3575; Corning Life Sciences). After incubation at room temperature for 30 min the fluorescence anisotropy was measured (GENios Pro, Tecan, Männedorf, Switzerland) by using an excitation filters of 485/20 nm and emission filters of 535/25 nm. The binding assays were performed in duplicates in the plate format.
(§7) The competition curves were analyzed by using SigmaPlot9. Data were fitted to a four parameter logistic curve to deduce the IC50 values. For the analysis of K1 values, data were fitted to the following equation (Z. X. Wang, FEBS Lett. 1995, 360, 111-114). A=(Amax−Amin)/[L]t×(([L]t×((2×((Klig+Kcomp+[L]t+[I]t−[R]t)^2−3×(Kcomp×([L]t−[R]t)+Klig×([I]t−[R]t)+[…]))^0.5×COS(ARCCOS((−2×(Klig+Kcomp+[L]t+[I]t−[R]t)^3+9×(Klig+Kcomp+[L]t+[I]t−[R]t)×(Kcomp×([L]t−[R]t)+Klig×([I]t−[R]t)+Klig×Kcomp)−27×(−1×Klig×Kcomp×[R]t))/(2×((((Klig+Kcomp+[L]t+[I]t−[R]t)^2−3×(Kcomp×([L]t−[R]t)+Klig×([I]t−[R]t)+Klig×Kcomp))^3)^0.5)))/3))−(Klig+Kcomp+[L]t+[I]t−[R]t)))/((3×Klig)+((2×((Klig+Kcomp+[L]t+[I]t−[R]t)^2−3×(Kcomp×([L]t−[R]t)+Klig×([I]t−[R]t)+Klig×Kcomp))^0.5×COS(ARCCOS((−2×(Klig+Kcomp+[L]t+[I]t−[R]t)^3+9×(Klig+Kcomp+[L]t+[I]t−[R]t)×(Kcomp×([L]t−[R]t)+Klig×([I]t−[R]t)+Klig×Kcomp)−27×(−1×Klig×Kcomp×[R]t))/(2×((((Klig+Kcomp+[L]t+[I]t−[R]t)^2−3×(Kcomp×([L]t−[R]t)+Klig×([I]t−[R]t)+Klig×Kcomp))^3)^0.5)))/3))−(Klig+Kcomp+[L]t+[I]t−[R]t)))+Amin
(§8) In this equation Klig and Kcomp stand for the Kd values of the used tracer or competing inhibitor, [I]t is referring to the total concentration of the titrated inhibitor.

The target in another experiment is T2, FKBP52 (Homo sapiens, UniProt Q02790).
T2 sequence (Q02790 50-138 limits assumed): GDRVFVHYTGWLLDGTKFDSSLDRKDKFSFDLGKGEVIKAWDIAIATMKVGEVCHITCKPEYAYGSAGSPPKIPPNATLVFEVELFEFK
Description: Fluorescence polarization (FP) assay, binding to the FK506-binding domain of FKBP52. The conditions noted are these: FK506-binding domain of FKBP52 (FKBP52FK1), competition with fluorescent ligand 2b. As to the method: as §1, §2, §3, §4, §5, §6, §7, §8

Consider `COc1ccc(OCCN2C[C@H](C[C@H](C)O)C3CCCC(C2=O)N3S(=O)(=O)c2cc(Cl)cc(Cl)c2)cc1OC` (single isomer, unassigned) [Compound D4], for which the inhibitory constant (Ki) on FKBP51 and at FKBP52 was at most 100 nM in each case.

Take `COc1ccc(OCCN2C[C@H](C[C@H](C)O)C3CCCC(C2=O)N3S(=O)(=O)c2cc(Cl)cc(Cl)c2)cc1OC` (single isomer, unassigned) [Compound D5]: the Ki on FKBP51 and on FKBP52 was at most 100 nM each time.

For `COCCN1C[C@H](C(C)O)C2CCCC(C1=O)N2S(=O)(=O)c1cc(Cl)cc(Cl)c1` (stereo in doubt) [Compound B6, (1S,5S,6R)-10-((3,5-dichlorophenyl)sulfonyl)-5-((R)-1-hydroxyethyl)-3-(2-methoxyethyl)-3,10-diazabicyclo[4.3.1]decan-2-one], the Ki on FKBP51 and on FKBP52 was at most 100 nM each time.

As for `COCCN1CC(CO)C2CCCC(C1=O)N2S(=O)(=O)c1cc(Cl)cc(Cl)c1` (stereo in doubt) [Compound B13, (1S,5R,6R)-10-((3,5-dichlorophenyl)sulfonyl)-5-(hydroxymethyl)-3-(2-methoxyethyl)-3,10-diazabicyclo[4.3.1]decan-2-one], the inhibition constant (Ki) on FKBP51 is at most 100 nM; at FKBP52, 100 to 500 nM.

As for `COCCN1CC(COC)C2CCCC(C1=O)N2S(=O)(=O)c1cc(Cl)cc(Cl)c1` (stereo in doubt) [Compound B14, (1S,5R,6R)-10-((3,5-dichlorophenyl)sulfonyl)-3-(2-methoxyethyl)-5-(methoxymethyl)-3,10-diazabicyclo[4.3.1]decan-2-one], the inhibition constant Ki is at most 100 nM on FKBP51 and 100 to 500 nM at FKBP52.

As for `O=C1C2CCCC(C(CO)CN1CCO)N2S(=O)(=O)c1cc(Cl)cc(Cl)c1` (stereo in doubt) [Compound C1, (1S,5R,6R)-10-((3,5-dichlorophenyl)sulfonyl)-3-(2-hydroxyethyl)-5-(hydroxymethyl)-3,10-diazabicyclo[4.3.1]decan-2-one], the Ki on FKBP51 and on FKBP52 was at most 100 nM each time.

For the molecule `COc1ccc(OCCN2C[C@H](C(C)O)C3CCCC(C2=O)N3S(=O)(=O)c2cc(Cl)cc(Cl)c2)cc1OC` (stereo in doubt) [Compound D6, (1S,5S,6R)-10-((3,5-dichlorophenyl)sulfonyl)-3-(2-(3,4-dimethoxyphenoxy)ethyl)-5-((R)-1-hydroxyethyl)-3,10-diazabicyclo[4.3.1]decan-2-one], the Ki on FKBP51 and on FKBP52 was at most 100 nM in each case.

Regarding `COc1ccc(OCCN2C[C@H](C(C)O)C3CCCC(C2=O)N3S(=O)(=O)c2cc(Cl)cc(Cl)c2)cc1OC` (stereo in doubt) [Compound D7, (1S,5S,6R)-10-((3,5-dichlorophenyl)sulfonyl)-3-(2-(3,4-dimethoxyphenoxy)ethyl)-5-((R)-1-hydroxyethyl)-3,10-diazabicyclo[4.3.1]decan-2-one], the Ki on FKBP51 and at FKBP52 was at most 100 nM each time.

In the case of `C=CC1CNC(=O)C2CCCC1N2S(=O)(=O)c1cc(Cl)cc(Cl)c1` (stereo in doubt) [Compound I8, (1S,5R,6R)-10-((3,5-dichlorophenyl)sulfonyl)-5-vinyl-3,10-diazabicyclo[4.3.1]decan-2-one], the Ki at FKBP51 and at FKBP52 was 500 to 1000 nM in each case.

On to `C=CC1CN(CCCOCc2ccccc2)C(=O)C2CCCC1N2S(=O)(=O)c1cc(Cl)cc(Cl)c1` (stereo in doubt) [Compound J1, (1S,5R,6R)-3-(3-(benzyloxy)propyl)-10-((3,5-dichlorophenyl)sulfonyl)-5-vinyl-3,10-diazabicyclo[4.3.1]decan-2-one], for which the inhibition constant Ki at FKBP51 and on FKBP52 was 100 to 500 nM throughout.

With `C=CC1CN(CCCOC)C(=O)C2CCCC1N2S(=O)(=O)c1cc(Cl)cc(Cl)c1` (stereo in doubt) [Compound J2, (1S,5R,6R)-10-((3,5-dichlorophenyl)sulfonyl)-3-(3-methoxypropyl)-5-vinyl-3,10-diazabicyclo[4.3.1]decan-2-one], the inhibitory constant (Ki) at FKBP51 and on FKBP52 was 500 to 1000 nM in each case.

For `C=CC1CN(Cc2ccccn2)C(=O)C2CCCC1N2S(=O)(=O)c1cc(Cl)cc(Cl)c1` (stereo in doubt) [Compound J4, (1S,5R,6R)-10-((3,5-dichlorophenyl)sulfonyl)-3-(pyridin-2-ylmethyl)-5-vinyl-3,10-diazabicyclo[4.3.1]decan-2-one], the inhibitory constant (Ki) on FKBP51 and at FKBP52 was 100 to 500 nM throughout.

In the case of `COCCCN1CC(CO)C2CCCC(C1=O)N2S(=O)(=O)c1cc(Cl)cc(Cl)c1` (stereo in doubt) [Compound J6, (1S,5R,6R)-10-((3,5-dichlorophenyl)sulfonyl)-5-(hydroxymethyl)-3-(3-methoxypropyl)-3,10-diazabicyclo[4.3.1]decan-2-one], the results for the inhibitory constant (Ki) on FKBP51 and on FKBP52 were 100 to 500 nM and 500 to 1000 nM, respectively.

For `C=CC1CN(CC(=O)O)C(=O)C2CCCC1N2S(=O)(=O)c1cc(Cl)cc(Cl)c1` (stereo in doubt) [Compound J10, 2-((1S,5R,6R)-10-((3,5-dichlorophenyl)sulfonyl)-2-oxo-5-vinyl-3,10-diazabicyclo[4.3.1]decan-3-yl)acetic acid], the Ki on FKBP51 and at FKBP52 was 100 to 500 nM in each case.

For `C=CC1CN(CC(N)=O)C(=O)C2CCCC1N2S(=O)(=O)c1cc(Cl)cc(Cl)c1` (stereo in doubt) [Compound J11, 2-((1S,5R,6R)-10-((3,5-dichlorophenyl)sulfonyl)-2-oxo-5-vinyl-3,10-diazabicyclo[4.3.1]decan-3-yl)acetamide], the Ki at FKBP51 and on FKBP52 was 100 to 500 nM throughout.

`C#CCN1CC(C=C)C2CCCC(C1=O)N2S(=O)(=O)c1cc(Cl)cc(Cl)c1` (stereo in doubt) [Compound J12, (1S,5R,6R)-10-((3,5-dichlorophenyl)sulfonyl)-3-(prop-2-yn-1-yl)-5-vinyl-3,10-diazabicyclo[4.3.1]decan-2-one]: the Ki on FKBP51 and at FKBP52 was 100 to 500 nM throughout.

For `C=CC1CN(Cc2c[nH]nn2)C(=O)C2CCCC1N2S(=O)(=O)c1cc(Cl)cc(Cl)c1` (stereo in doubt) [Compound J13, (1S,5R,6R)-3-((1H-1,2,3-triazol-4-yl)methyl)-10-((3,5-dichlorophenyl)sulfonyl)-5-vinyl-3,10-diazabicyclo[4.3.1]decan-2-one], the Ki at FKBP51 and at FKBP52 was at most 100 nM throughout.

As for `C=CC1CN(Cc2cnccn2)C(=O)C2CCCC1N2S(=O)(=O)c1cc(Cl)cc(Cl)c1` (stereo in doubt) [Compound J14, (1S,5R,6R)-10-((3,5-dichlorophenyl)sulfonyl)-3-(pyrazin-2-ylmethyl)-5-vinyl-3,10-diazabicyclo[4.3.1]decan-2-one], the Ki on FKBP51 and at FKBP52 was 100 to 500 nM throughout.

Regarding `C=CC1CN(CC#N)C(=O)C2CCCC1N2S(=O)(=O)c1cc(Cl)cc(Cl)c1` (stereo in doubt) [Compound J16, 2-((1S,5R,6R)-10-((3,5-dichlorophenyl)sulfonyl)-2-oxo-5-vinyl-3,10-diazabicyclo[4.3.1]decan-3-yl)acetonitrile], the inhibition constant (Ki) at FKBP51 and at FKBP52 was 100 to 500 nM throughout.
